# Legend:
# SK-N-AS = experiment: Cell viability, CellTiter Glo Assay, SK-N-AS; type: cell-based; conditions: Homo sapiens, neuroblastoma cell line, read-out: Effect of AOH39 on Cell Viability IC50
# Method: (§1) The IC50's listed in Table 1 and in FIGS. 8 and 9 were determined by monitoring cell proliferation in the absence or presence of increasing concentrations of AOH39 using the Cell-Titer Glo Assay, (Promega Inc., Madison, Wis.) which monitors the energy status of the entire culture and the viability of the cell population. (https://www.promega.com/products/cell-health-and-metabolismicell-viability-assaysicelltiter_glo-luminescent-cell-viability-assay/). As the population doubles so does the quantum yield from the assay. HCC1937 is a BRCA1 defective Breast Cancer cell line; MCF7 is an ER+ breast cancer cell line; MDA-MB231 and MDA-MB468 are ER-aggressive breast cancer cell lines. SK-N-AS, SK-N-BE2c, SK-N-DZ lines are neuroblastoma cell lines and LAN5 cells are a cell line derived from a neuroblastoma bone metastasis; MCF10A is a non-malignant but immortalized breast cell line. PBMC—peripheral blood monocytes (proliferating normal cells), and MCF10A is an immortalized but non-malignant breast epithelial cell line. Referring to FIGS. 8 and 9, the X-axis is the Log of AOH39 concentration in uM, where 0 corresponds to 1 uM and 1 corresponds to 10 uM. The Y-Axis indicates cell proliferation as a percentage of identical cell cultures grown in PBS/DMSO without added AOH39.
# MDA-MB468 = experiment: Cell viability, CellTiter Glo Assay, MDA-MB468; type: cell-based; conditions: Homo sapiens, MDA-MB-468; MDA-MB468, ER- breast cancer cell line; read-out: Effect of AOH39 on Cell Viability IC50
# Method: as §1
# MCF7 cells = experiment: MCF7 cell viability, MTT assay; type: cell-based; conditions: 72 hour incubation with 10 μM
# Method: (§2) There is a precise correlation between the ability of AOH39 to inhibit the SV40 origin dependent in vitro DNA replication process and MCF7 cell viability, FIG. 4. Cell viability was determined colorimetrically using the MTT assay following a 72 hour incubation with 10 μM of AOH39. In vitro DNA replication activity was determined using the standard T-antigen and SV40 origin dependent in vitro DNA replication reaction (L. Malkas et al., Biochemistry, 29, 6362-6374 (1990)), and percent inhibition was determined relative to a reaction containing Tris-HCl/DMSO in place of AOH39 for the activity assay, and PBS/DMSO for the viability assay.
# [1] = tested on: MCF7 Cell SV40 origin-dependent In Vitro DNA replication; experiment: T-antigen and SV40 origin dependent in vitro DNA replication reaction; type: biochemical; conditions: for Inhibition of in vitro DNA replication: relative to reaction containing Tris-HCl/DMSO
# Method: In vitro DNA replication activity was determined using the standard T-antigen and SV40 origin dependent in vitro DNA replication reaction (L. Malkas et al., Biochemistry 29: 6362-6374 (1990) and percent inhibition was determined relative to a reaction containing Tris-HCl/DMSO in place of AOH39.) The reaction was started with the addition of T-antigen to the reaction mixture. Results are shown in FIG. 3, with AOH39 inhibiting replication by roughly 50% at concentrations of 5 μM and by more than 75% at 10 μM.
# as §2
# MCF7 = experiment: Cell viability, CellTiter Glo Assay, MCF7; type: cell-based; conditions: Homo sapiens; MCF7, ER+ breast cancer cell line; read-out: Effect of AOH39 on Cell Viability IC50
# Method: as §1
# LAN5 = experiment: Cell viability, CellTiter Glo Assay, LAN5; type: cell-based; conditions: LA-N-5; LAN5, neuroblastoma bone metastasis cell line; read-out: Effect of AOH39 on Cell Viability IC50
# Method: as §1
# PBMC = experiment: Cell viability, CellTiter Glo Assay, PBMC; type: cell-based; conditions: peripheral blood monocytes (proliferating normal cells), read-out: Effect of AOH39 on Cell Viability IC50
# Method: as §1
# MCF10A = experiment: Cell viability, CellTiter Glo Assay, MCF10A; type: cell-based; conditions: Homo sapiens, MCF-10A, non-malignant but immortalized breast cell line, read-out: Effect of AOH39 on Cell Viability IC50
# Method: as §1
# HCC1937 = experiment: Cell viability, CellTiter Glo Assay, HCC1937; type: cell-based; conditions: Homo sapiens; HCC1937, BRCA1 defective breast cancer cell line; read-out: Effect of AOH39 on Cell Viability IC50
# Method: as §1
# SK-N-DZ = experiment: Cell viability, CellTiter Glo Assay, SK-N-DZ; type: cell-based; conditions: Homo sapiens, neuroblastoma cell line, read-out: Effect of AOH39 on Cell Viability IC50
# Method: as §1
# MDA-MB231 = experiment: Cell viability, CellTiter Glo Assay, MDA-MB231; type: cell-based; conditions: Homo sapiens, MDA-MB-231; MDA-MB231, ER- breast cancer cell line; read-out: Effect of AOH39 on Cell Viability IC50
# Method: as §1
# SK-N-BE2c = experiment: Cell viability, CellTiter Glo Assay, SK-N-BE2c; type: cell-based; conditions: SK-N-BE(2)-C, neuroblastoma cell line, read-out: Effect of AOH39 on Cell Viability IC50
# Method: as §1
structure (smiles),measurement,setting,value
O=C(CNC(=O)c1cccc2ccccc12)Nc1ccccc1Cc1ccccc1 [AOH39],IC50,SK-N-AS,2200 nM
same,IC50,MDA-MB468,3300 nM
same,MCF7 cell viability (in words),MCF7 cells,significant decrease in MCF7 cell viability
same,Inhibition of in vitro DNA replication,[1]; 5 μM,roughly 50%
same,Inhibition of in vitro DNA replication,[1]; 10 μM,more than 75%
same,Inhibition of DNA replication (in words),[1]; relative to control replication reaction containing PBS/DMSO in place of compound,inhibited DNA replication significantly
same,IC50,MCF7,3100 nM
same,IC50,LAN5,1200 nM
same,IC50,PBMC,13200 nM
same,IC50,MCF10A,6200 nM
same,IC50,HCC1937,2200 nM
same,IC50,SK-N-DZ,1700 nM
same,IC50,MDA-MB231,1000 nM
same,IC50,SK-N-BE2c,2900 nM

# Source: patent US10420840B2, “Anticancer therapeutic agents” (RLL, LLC, priority 2015, dated 2019)
